Experiments:
Recombinant human GR = Recombinant human GR (Homo sapiens (Human), UniProt P04150); assay: GR competitive binding assay by fluorescence polarization; details: 20 μM test compound solution, 10 μL/well; 2 hours; DEX positive control; read-out: GR binding rate (%)
Description: In order to evaluate a binding activity of the present compound to GR, a GR receptor competitor assay was carried out by a fluorescence polarization method. In the assay, a GR competitive binding assay kit (manufactured by Invitrogen, cat No. P2816) was used for the assay, and a procedure was carried out according to the protocol attached to the kit. Hereinafter, the specific method will be described.
GR screening buffer: A buffer containing 10 mM of potassium phosphate (pH 7.4), 20 mM of sodium molybdate (Na2MoO4), 0.1 mM of ethylene diamine tetraacetic acid (EDTA), 5 mM of dithiothreitol (DTT), 0.1 mM of stabilizing peptide and 2% of dimethylsulfoxide was prepared.
4×GS1 solution: Fluormone™ GS1, which is a fluorescent glucocorticoid ligand, was diluted with GR screening buffer, whereby a 4 nM solution was prepared.
4×GR solution: Recombinant human GR was diluted with GR screening buffer, whereby a 16 nM solution was prepared.
After a test compound was dissolved in dimethylsulfoxide, the resulting solution was diluted with GR screening buffer, whereby a 20 μM test compound solution was prepared. In addition, DEX was similarly dissolved, whereby a DEX solution with a […] concentration was prepared, and the solution was diluted with GR screening buffer, whereby a 2 mM DEX solution was prepared. DEX was used as positive control.
• 1) The test compound solution was added in an amount of 10 μL into each well of a 384-well plate. • 2) 4×GS1 solution and 4×GR solution were added in an amount of 5 μL into each well, respectively. • 3) GR screening buffer was added in an amount of 10 μL/well into each well in place of the test compound solution, which was made a negative control. • 4) A 2 mM of DEX was added in an amount of 10 μL/well into each well in place of the test compound solution, which was made a positive control. • 5) The plate was incubated in a dark place at room temperature for 2 hours, and fluorescence polarization of each well was measured. (Calculation Equation of GR Binding Ratio)
A GR binding ratio (%) was calculated from the following equation. GR binding ratio (%)=100×{1−(fluorescence polarization of test compound solution−average value of fluorescence polarization of positive control solution)/(average value of fluorescence polarization of negative control solution−average value of fluorescence polarization of positive control solution)}

[1] = tested on: TNFα production in rat whole blood; assay: TNFα production inhibitory action evaluation test (LPS stimulation ex vivo, ELISA); type: cell-based; details: 20 hours, 200 μM test compound solution 10 μL/well, DEX treated group = 100, read-out: TNFα production inhibitory ratio (% DEX)
Description: In order to evaluate an action of the present compound as a GR agonist, a TNFα production inhibitory action in rat whole blood after LPS stimulation ex vivo was investigated. For the measurement of the TNFα production amount, the ELISA method (manufactured by R&D Systems, Cat No. RTA00) was used, and a procedure was carried out according to the protocol attached thereto. Hereinafter, the specific method will be described.
LPS solution: LPS was dissolved in PBS(−) and diluted with RPMI 1640 to prepare an LPS solution with a concentration of 2 μg/mL.
After the test compound was dissolved in dimethylsulfoxide, the solution was diluted with PBS(−) to prepare 200 μM of a test compound solution. In addition, DEX was similarly dissolved to prepare 200 μM of a DEX solution, and a TNFα production inhibitory ratio of DEX was measured, and used for calculation of Efficacy (% DEX).
• 1) Blood was collected from 3 to 5 rats using an injection syringe treated with heparin from the abdominal aorta under isoflurane anesthesia. The rats confirmed death after lething the whole blood. • 2) The blood of 3 to 5 rats pooled in a 96-well round bottom culture plate was seeded at each 180 μL/well. • 3) It was cultured (37° C., 5% CO2, 95% air) for about 1 hour. • 4) The test compound solution was added each 10 μL/well, and cultured for 1 hour. • 5) LPS solution was added each 10 μL/well. • 6) The sample in which 2% dimethylsulfoxide-containing PBS(−) was added with each 10 μL/well in place of each test compound solution, and RPMI 1640 was added with each 10 μL/well in place of the LPS solution was made a negative control. • 7) The sample in which 2% dimethylsulfoxide-containing PBS(−) was added with each 10 μL/well in place of each test compound solution was made a positive control. • 8) After completion of 20 hours cultivation, the supernatant was recovered and the amount of TNFα released in the supernatant was measured by using an ELISA Kit. • 9) The TNFα production inhibitory ratio was calculated according to the following calculation formula. (Calculation of TNFα Production Inhibitory Ratio)
TNFα production inhibitory ratio (%) was calculated according to the following formula. TNFα production inhibitory ratio (%)=100×{1−(TNFα production amount of each test compound solution−average value of TNFα production amount of negative control group)/(average value of TNFα production amount of positive control group−average value of TNFα production amount of negative control group)}(%)
Further, a TNFα production inhibitory ratio (Efficacy (% DEX)) when the DEX treated group was made 100 was calculated. Efficacy (% DEX)=100×{(average value of TNFα production inhibitory ratio of each test compound solution)/(average value of TNFα production inhibitory ratio of DEX treated group)}(%)

[2] = tested on: ovalbumin actively sensitized allergic conjunctivitis model of rabbits; assay: Allergic conjunctivitis model evaluation test; type: in vivo, rabbit; details: 1% suspension, eye drop 50 μL four times a day for 4 days plus once; 0.5 hour after challenge
Description: In order to evaluate an anti-allergic action of the present compounds on allergic conjunctivitis, an inhibitory effect on hyperemia in an ovalbumin actively sensitized allergic conjunctivitis model of rabbits was investigated. Incidentally, this effect was evaluated by calculating an inhibitory ratio from the score of the base agent administered group (control group) and the score of the test compound administered group.
A base agent containing a general additive(s) was added to the test compound to prepare test compound suspensions with 1% (WN) and 3% (W/V).
By using male JW rabbits, ovalbumin (200 μg/mL/physiological saline solution) adsorbed on aluminum hydroxide gel was injected 200 μL per eye into bulbar conjunctiva of both eyes of rabbits, respectively, to perform active sensitization.
After 14 days from sensitization or later, the test compound suspension was eye-dropped four times a day for 4 days, and then, at the next day, it was eye-dropped (instillation dose: 50 μL/time) once to both eyes. Incidentally, the base agent was similarly eye-dropped to the base agent administered group (control group).
One hour after the final eye dropping of the test compound suspension, a physiological saline solution containing 0.02% (W/V) of ovalbumin was administered from rabbit ear vein at a dose of 1.5 mL per 1 kg of rabbit to induce allergic conjunctivitis.
After 0.5 hour of the challenge, the degree of hyperemia symptoms of both ocular conjunctiva of rabbits was evaluated according to the following criteria, and the average value of the total of these scores was calculated. […]

Recombinant human GR, sequence (P04150 whole entry): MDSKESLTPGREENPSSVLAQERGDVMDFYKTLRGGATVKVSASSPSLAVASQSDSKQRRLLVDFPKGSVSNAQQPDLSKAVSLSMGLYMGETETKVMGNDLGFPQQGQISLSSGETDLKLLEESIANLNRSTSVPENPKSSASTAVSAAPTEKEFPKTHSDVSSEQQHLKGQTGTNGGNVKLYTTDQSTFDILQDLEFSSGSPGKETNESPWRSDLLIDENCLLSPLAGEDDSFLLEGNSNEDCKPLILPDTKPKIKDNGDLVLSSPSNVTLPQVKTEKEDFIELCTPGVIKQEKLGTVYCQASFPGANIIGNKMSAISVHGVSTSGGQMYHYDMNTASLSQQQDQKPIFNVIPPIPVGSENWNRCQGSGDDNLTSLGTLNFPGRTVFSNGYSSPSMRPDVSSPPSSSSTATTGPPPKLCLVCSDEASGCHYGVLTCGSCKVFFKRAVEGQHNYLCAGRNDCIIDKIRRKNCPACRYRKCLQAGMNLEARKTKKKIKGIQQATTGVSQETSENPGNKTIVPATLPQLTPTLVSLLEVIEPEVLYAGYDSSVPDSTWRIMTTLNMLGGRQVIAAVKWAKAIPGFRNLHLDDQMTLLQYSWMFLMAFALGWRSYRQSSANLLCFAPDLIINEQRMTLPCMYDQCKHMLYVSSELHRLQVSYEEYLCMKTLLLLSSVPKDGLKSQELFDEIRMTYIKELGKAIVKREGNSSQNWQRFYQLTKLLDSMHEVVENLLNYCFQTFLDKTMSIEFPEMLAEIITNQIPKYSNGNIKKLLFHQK

inhibition at 10 µM (Recombinant human GR): > 99%
Structure (SMILES): COc1cc(OC[C@H](C)OP(=O)(O)O)ccc1-c1ccc2c(c1COc1cc(F)ccc1C)N(C)C(=O)C(C)(C)N2 [Compound 14-1, (S)-8-(5-fluoro-2-methylphenoxymethyl)-7-[4-(2-phosphonohydroxypropyl)oxy-2-methoxyphenyl]-1,3,3-trimethyl-3,4-dihydro-1H-quinoxalin-2-one]
Emax [1]: 86% | Eye congestion inhibitory ratio (%) [2]: 22%
